Measurements taken from US6573258B2, “Photodynamic porphyrin antimicrobial agents” (Frontier Scientific, Inc., priority 2000, dated 2003).

What was measured:
E. coli cells [1] = assay: Growth inhibition after 5 min incubation with porphyrin and white-light irradiation; type: cell-based, Escherichia coli
Procedure: (§1) The abilities of various examples of the porphyrins of the instant invention to kill Gram-negative and Gram-positive bacteria were tested against that of T4MPyP. Each of the compounds was incubated with E. coli and S. aureus cells for 5 minutes, following which the samples were irradiated with white light for varying lengths of time.
(§2) Escherichia coli strain O4 (wild type), and methycillin-resistant Staphylococcus aureus, strain MRSA 110, were grown aerobically at 37° C. in brain heart infusion broth (BHI, Difco, Detroit, Mich.). The cells in the stationary phase of growth were harvested by centrifugation (2,000 g for 15 min) of the broth cultures, washed twice with 10 mM PBS at pH=7.4, containing 2.7 mM KCl and 0.14 M NaCl, and suspended in PBS at a density of 10^8-10^9 cells/ml (absorbance of about 0.7 at 650 nm). Aliquots of 5 ml of the cell suspension were incubated with 1 μM porphyrins for 5 min in the dark at room temperature. After incubation the suspensions were centrifuged and the cell pellets were collected immediately or washed with PBS and centrifuged again for one or three times.
(§3) The toxic effects of T4MPyP and its analogues on E. coli and S. aureus cells were evaluated by measuring the extent of growth inhibition (bacteriostatic effect) and reduction of survival (cytocidal/bacteriocidal effect) following treatment with porphyrin in the dark or upon light exposure.
(§4) In all cases, 5 ml of the cell suspension (10^8-10^9 cells/ml) were incubated for 5 min in the dark at room temperature with the selected photosensitizer at concentrations ranging between 0.5 and 10 μM. After dark-incubation, some of the cell samples were irradiated with white light (150 mW/cm^2). During irradiation, (up to 30 min) the cells were kept at 37° C. and magnetically stirred. The treated and untreated control cells were diluted with BHI and maintained at 37° C. while the absorbance of the suspension at 650 nm was monitored at predetermined time periods for determining growth curves. The percent of growth inhibition in the treated cells was calculated by the following equation: […]
(§5) where AX, and AC are the absorbances measured after 3 h incubation, respectively, for the treated and control cell suspensions, respectively, while A0 represents the initial absorbance and the AC is that of the control cell suspension after 5 hours incubation. Cell survival was determined by plating serially diluted aliquots of treated and untreated cells on brain heart agar and counting the number of colonies after 18-24 h incubation at 37° C.

S. aureus cells [2] = assay: as above; type: cell-based, Staphylococcus aureus
Procedure: as §1, §2, §3
[…] After dark-incubation, some of the cell samples were irradiated with white light (150 mW/cm^2). During irradiation, (up to 30 min) the cells were kept at 37° C. and magnetically stirred. The treated and untreated control cells were diluted with BHI and maintained at 37° C. while the absorbance of the suspension at 650 nm was monitored at predetermined time periods for determining growth curves. The percent of growth inhibition in the treated cells was calculated by the following equation:
as §5

E. coli cells [3] = assay: Decrease of cell survival (colony counting) after white-light irradiation; type: cell-based, Escherichia coli; conditions: 5 min dark incubation, 15 min white light (150 mW/cm^2)
Procedure: as §2, §3, §4, §5

[4] = Fluorescence quantum yields; type: physicochemical; conditions: for ΦF (PBS), fluorescence quantum yield: in PBS; for ΦF (SDS), fluorescence quantum yield: in aqueous 2% SDS
Procedure: Ground-state absorption spectra of the porphyrins (ca. 5 μM in phosphate buffered saline (PBS, pH=7.4) were recorded with a Lambda 5 Perkin-Elmer spectrophotometer. Fluorescence spectra, corrected for the instrumental response, were recorded with a Perkin-Elmer (model LS) or a Spex (Fluorolog F112) spectrofluorimeter. Fluorescence quantum yields ((IF) of the porphyrin derivatives in PBS and in water containing 2% sodium dodecylsulfate (a detergent, hereinafter “SDS”) were determined by measuring the area of the emission spectrum (600-800 nm range, excitation at 560 nm) and using tetra-n-propylporphycene in toluene as a reference (ΦF=0.38). Braslavsky et al, J. Photochem. Photobiol. B: Biol., 40:191-198 (1997). In all cases, the absorbance of the sample and the reference solution were kept below 0.1 at the excitation wavelength to minimize inner filter effects.

[5] = Fluorescence decay times (phase-shift method); type: physicochemical; conditions: ca. 5 μM, air-equilibrated buffer pH 7.4, λexc = 420 nm, λem > 600 nm
Procedure: Fluorescence decay times of the porphyrin samples were measured by means of a Spex Fluorolog-τ2 spectrofluorimeter based on the phase-shift method. The frequency response curves (phase-shift and demodulation ratio vs. frequency) were globally analyzed.

[6] = Triplet state properties by laser flash photolysis; type: physicochemical; conditions: phosphate-buffered solution; for φT, triplet quantum yield: ε920 estimated by total depletion method
Procedure: Laser flash photolysis experiments were carried out by use of the setup previously described in Gomer, et al., with excitation wavelengths of 355 and 420 nm. Gorner, et al., Photoinduced electron transfer between styrylanthracenes and electron donors and acceptors in acetonitrile, J. Chem. Soc. Faraday Trans., vol. 88, pp. 29-34 (1992).
The transient spectra of the porphyrins in buffer solutions were recorded upon laser flash photolysis excitation at 355 and 420 nm. […] The decay (growth) of the signal (bleaching) occurred according to first-order kinetics and led to a complete recovery of the ground state with a lifetime of 91 μs. […] This also allowed the triplet quantum yield (φT) to be determined (see Table 3), after calibration of the experimental setup by use of an optically-matched solution of benzophenone in acetonitrile.

[7] = Photosensitized photooxidation of NATA; conditions: 10 μM NATA; for ΦSDS × 10^3, quantum yield for photo-oxidation of NATA: aqueous 2% SDS; for ΦPBS × 10^3, quantum yield for photo-oxidation of NATA: phosphate buffered solution
Procedure: The photosensitizing activity of the various porphyrins was tested by measuring their efficiency in promoting the photooxidation of N-acetyl-L-tryptophanamide (NATA, Aldrich Chem. Co.) as a model biological substrate. Toward this aim, 10 μM NATA in PBS or in water containing 2% SDS was irradiated in the presence of 5 μM porphyrin. The irradiations were performed with 515±10 nm-light isolated by means of an interference filter (Balzers, Liechtenstein), while the solution (2 ml) was magnetically stirred in a quartz cuvette of 1-cm optical path and kept at 25° C. The photosensitized modification of NATA was followed by measuring the decrease in the intensity of its fluorescence emission spectrum (300-450 nm) upon excitation with 290 nm-light at various irradiation times. Plots of in F°/F (where F° and F represent the fluorescence intensity at time 0 and t, respectively) vs. the irradiation time allowed the first-order rate constants of the photo-process to be derived.
The intensity of the incident light was measured by using Aberchrome 999P in toluene as an actinometer. Heller, EPA Newslett., 29:49-60 (1987). This parameter was used to calculate the quantum yields of NATA photooxidation sensitized by the different porphyrins.

[8] = Photostability (photobleaching) under white light; type: physicochemical; conditions: 1 μM in PBS
Procedure: The photostability of the porphyrins was determined in PBS upon illumination of […] solutions with white light (400-800 nm) isolated from the emission of a quartz-halogen lamp equipped with UV and infrared filters (Teclas, Lugano, Switzerland). The lamp was operated at a fluence rate of 150 mW/cm^2. During irradiation, the solution was magnetically stirred and kept at 37° C. The concentration of the porphyrin samples was monitored spectrophotometrically at different irradiation times and the photostability was expressed as the percent residual absorbance referred to the absorbance measured prior to irradiation.

E. coli cells [9] = assay: Binding of porphyrins to bacteria cells; type: cell-based, Escherichia coli; conditions: 5 min incubation, 1 μM porphyrin, three PBS washings
Procedure: as §2
(§6) The amount of cell-bound porphyrins was determined in the pellets after resuspension and overnight-incubation in 2% aqueous SDS. The porphyrin concentration in the cell lysate was determined by measuring the intensity of red fluorescence (600-750 nm) emitted after excitation at 420 nm and interpolating the data on a calibration plot obtained with known porphyrin concentrations. The protein content of the cell samples was determined by the method of Lowry (Lowry et al., J. Biol. Chem., 193:265-275 (1951)) and was used to express the amount of porphyrin bound to the cells as nanomoles of porphyrin/mg of protein.

S. aureus cells [10] = assay: Binding of porphyrins to bacteria cells; type: cell-based, Staphylococcus aureus; conditions: S. aureus, 5 min incubation, 1 μM porphyrin, three PBS washings
Procedure: as §2, §6

S. aureus cells [11] = assay: Dark toxicity of porphyrins on bacteria cells; type: cell-based, Staphylococcus aureus; conditions: 10 μM, 5 min incubation in the dark
Procedure: as §3, §4, §5

E. coli cells [12] = assay: Dark toxicity of porphyrins on bacteria cells; type: cell-based, Escherichia coli; conditions: 10 μM, 5 min incubation in the dark
Procedure: as §3, §4, §5

[13] = 1 μM, incubated 5 min, white light 5 min
[14] = Table 5: 1 μM, 5 min incubation, 5 min white light (150 mW/cm^2)
[15] = 10 μM, incubated 5 min, white light 5 min
[16] = 10 μM, incubated 5 min, white light 15 min
[17] = Table 5: 10 μM, 5 min incubation, 5 min white light (150 mW/cm^2)

Row | SMILES | DECREASE OF SURVIVAL (log) (E. coli cells [3]; 1 μM porphyrin) | DECREASE OF SURVIVAL (log) (E. coli cells [3]; 10 μM porphyrin) | ΦF (PBS), fluorescence quantum yield [4] | ΦF (SDS), fluorescence quantum yield [4] | A2, relative weight of slow component [5] [%] | τ1, fluorescence decay time of fast component [5] [ns] | τ2, fluorescence decay time of slow component [5] [ns] | λmin of transient spectrum [6] [nm] | φ×ε920 [6] [M⁻¹ cm⁻¹] | τ^air, triplet lifetime [6] [μs] | φT, triplet quantum yield [6] | ΦSDS × 10^3, quantum yield for photo-oxidation of NATA [7] | ΦPBS × 10^3, quantum yield for photo-oxidation of NATA [7] | other results
1 | CCCCCCCCCCCCCCCCCCCCCC[n+]1ccc(-c2c3nc(c(-c4cc[n+](C)cc4)c4ccc([nH]4)c(-c4cc[n+](C)cc4)c4nc(c(-c5cc[n+](C)cc5)c5ccc2[nH]5)C=C4)C=C3)cc1.Cl.Cl.[Cl-].[Cl-].[Cl-].[Cl-] [Porphyrin C22, 5-(4-N-docosanyl)-10,15,20-tris(4-N-methylpyridyl)-21H,23H-porphine tetrachloride dihydrochloride salt] | +0.22 ± 0.07 log | −1.94 ± 0.28 | 0.001 | 0.029 | 73 | 0.5 | 5.9 | 420 | <122 | 0.1 | <0.08 | 0.83 ± 0.08 | below our detection limits | Growth inhibition (%) E. coli (E. coli cells [1]; [13]): 2.7%; Growth inhibition (%) E. coli (E. coli cells [1]; 1 μM, incubated 5 min, white light 30 min): 18.5%; Growth inhibition (%) E. coli (E. coli cells [1]; [14]): 3%; Growth inhibition (%) S. aureus (S. aureus cells [2]; [13]): 69.7%; Growth inhibition (%) S. aureus (S. aureus cells [2]; 1 μM, incubated 5 min, white light 10 min): 90.2%; Growth inhibition (%) S. aureus (S. aureus cells [2]; Table 5: 0.5 μM, 5 min incubation, 5 min white light (150 mW/cm^2)): 27%; Growth inhibition (%) S. aureus (S. aureus cells [2]; [14]): 70%; t^1/2 of initial fast photodegradation phase [8]: 6.5 min
2 | C[n+]1ccc(-c2c3nc(c(-c4cc[n+](C)cc4)c4ccc([nH]4)c(-c4cc[n+](C)cc4)c4nc(c(-c5cc[n+](C)cc5)c5ccc2[nH]5)C=C4)C=C3)cc1.Cc1ccc(S(=O)(=O)[O-])cc1.Cc1ccc(S(=O)(=O)[O-])cc1.Cc1ccc(S(=O)(=O)[O-])cc1.Cc1ccc(S(=O)(=O)[O-])cc1 [Porphyrin T4MPyP, Meso-tetra(N-methyl-4-pyridyl)porphine tetratosylate, reference compound] | +0.28 log | −1.82 ± 0.82 | 0.017 | 0.031 | 71 | 1.0 | 4.7 | 425 | 6814 | 14 | 0.73 | 0.64 ± 0.08 | 0.77 ± 0.21 | Growth inhibition (%) E. coli (E. coli cells [1]; [15]): 28.7%; Growth inhibition (%) E. coli (E. coli cells [1]; [16]): 82.8%; Growth inhibition (%) E. coli (E. coli cells [1]; [17]): 29%; concentration photoinducing significant bacteriostatic and bactericidal action (E. coli cells [1]; both cell strains (S. aureus and E. coli)): 10 µM; Growth inhibition (%) S. aureus (S. aureus cells [2]; [15]): 96.4%; Growth inhibition (%) S. aureus (S. aureus cells [2]; [16]): 100%; Growth inhibition (%) S. aureus (S. aureus cells [2]; [17]): 96%; A1, relative weight of fast component [5]: 29%; λmax of transient spectrum [6]: 480 nm; τ^N2, triplet lifetime ([6]; N2): 91 μs; initially bound porphyrin retained after three washings (E. coli cells [9]): 11%; initially bound porphyrin retained after three washings (S. aureus cells [10]): 16%; inhibition of bacterial cell growth in the dark (S. aureus cells [11]): barely detectable inhibition; inhibition of bacterial cell growth in the dark (E. coli cells [12]): barely detectable inhibition
